Literature values as cited in patent US12285410B2, “Combination comprising HDAC inhibitor and CD137 agonist for cancer therapy” (4SC AG, priority 2018, dated 2025).

Tests used:
[1] = tested on: different types of blood cancer; settings: 24 heavily pre-treated patients

Compound	complete remission (one patient), duration [1] [months]	disease control, share of patients [1] [%]	long-term stabilization, share of patients [1] [%]	partial responder (one patient), duration [1] [months]	tolerability [1]	immunologic and pharmacodynamic activity (at 0.1 mg/kg every 3 weeks)	tolerability (at 0.1 mg/kg every 3 weeks)	treatment-related AE: fatigue (at 0.1 mg/kg every 3 weeks) [%]	treatment-related AE: nausea (at 0.1 mg/kg every 3 weeks) [%]	maximum tolerated dose (every 3 weeks) [mg/kg]
Cn1cc(-c2ccc(S(=O)(=O)n3ccc(/C=C/C(=O)Nc4ccccc4N)c3)cc2)cn1 [Compound 4SC-202, (E)-N-(2-aminophenyl)-3-(1-((4-(1-methyl-1H-pyrazol-4-yl)phenyl)sulfonyl)-1H-pyrrol-3-yl)acrylamide]	28	83	50	8	well tolerated with few and/or manageable adverse events					
Urelumab						immunologic and pharmacodynamic activity demonstrated by the induction of IFN-inducible genes and cytokines	relatively well tolerated	16	13	0.1
